In PMC3598812, “Evaluation of Anti-Hyperalgesic and Analgesic Effects of Two Benzodiazepines in Human Experimental Pain: A Randomized Placebo-Controlled Study” (PLoS ONE, 2013):
“And” between values parts separate entries of the source, which are not always exact repeats. Identical values can stand only once. “Also recorded” adds a separate entry of the source.

Experiments:
healthy male volunteers [1] = assay: Area of static hyperalgesia after intradermal capsaicin injection (512 mN von Frey hair); format: in vivo, human; conditions: for Change in the area of static hyperalgesia over time: main analysis, pairwise multiple comparisons within each drug; for Area of static hyperalgesia: single oral dose (clobazam 20 mg, clonazepam 1 mg, tolterodine 1 mg), mean (SD); for Change in the area of static hyperalgesia between 60 min and the measurement after flumazenil: subgroup analysis (n = 8), pairwise comparisons within each drug
Excerpt: Intradermal injection of capsaicin causes a brief stinging/burning pain at the injection site followed by development of secondary hyperalgesia, i.e. hyperalgesia detected at surrounding (not injected) skin [15], [16]. Secondary hyperalgesia after intradermal capsaicin is the result of sensitization of the central nervous system, which is one of the most relevant aspects of neuroplastic changes. This model was sensitive to the action of GABAergic compounds in animal studies.
The capsaicin solution was prepared by the Hospital Pharmacy and underwent sterile filtration into sterile septum-sealed vials. The sterile solution (1 mg/ml) was placed into sterile syringes and used for intradermal injection at room temperature. The skin temperature was measured using a digital thermometer, and was 32°C+/−1 in all subjects.
Subjects remained semi-supine during the experiment. Before capsaicin injection, the skin of the forearm was cleaned using an antiseptic wipe and allowed to air dry. The injection site was marked midway between the elbow and the wrist. Using a surgical skin marker, 4 lines were drawn through the injection site, so that they intersected the corners of a regular octagon (figure 2). These lines were marked every 0.5 cm from the center to the edges using a predefined grid. […] We determined the area of hyperalgesia by adding the areas of each triangle in which hyperalgesia was recorded.
Using a 1-ml tuberculin syringe fitted with a 27-gauge disposable needle, 100 µl capsaicin were injected […] into the skin, at the intersection of the 4 vectors previously drawn. A white skin elevation appeared during injection ensuring correct injection.
Static mechanical hyperalgesia was judged to be present when the subjects reported that applying a 512 mN von Frey Hair, 5 and 30 minutes after capsaicin injection, elicited pain with an intensity of at least 4 using a numerical rating scale (NRS, whereby 0 = no pain and 10 = worst pain). Only these subjects were included in the study. In order to document pain induction, the subject recorded pain intensity at injection and 5 minutes post-injection using a 10 cm visual analogue pain scale (VAS), whereby 0 = no pain and 10 = worst pain imaginable.
The area of secondary hyperalgesia was assessed using a calibrated 512 mN von Frey hair. The punctuated probe was moved along the 8 radial lines defined above, starting approximately 6 cm away from the site of injection, at each mark in steps of 0.5 cm. The weighted von Frey hair was placed gently on the skin and the load was applied for 2 seconds. The volunteers were asked to report when the pricking sensation changed to a pain sensation. At least 4 seconds elapsed between consecutive stimuli. This procedure was repeated for each vector. The number corresponding to the marker at which sensation changes as described above was noted and the individual numbers were used to calculate the area of hyperalgesia.
The flow of the experiment is illustrated in figure 3. After training, basal values for the pain tests were determined. The study medication was given immediately after the intradermal injection of capsaicin. Thus, basal values were recorded for all tests, except for those related to capsaicin injection. Because of the relatively short duration of hyperalgesia induced by capsaicin, the recordings of basal values before drug administration would yield a too short testing procedure.

healthy male volunteers [2] = assay: Pressure pain detection and tolerance thresholds (pressure algometer, 2nd toe); format: in vivo, human; conditions: mean (SD)
Experimental: Pain detection and tolerance thresholds were measured with an electronic pressure algometer (Somedic, Hörby, Sweden) applied at the center of the pulp of the 2nd toe. […] The pressure was increased from 0 at a rate of 30 kPa/s to a maximum pressure of 1200 kPa. Pain detection threshold was defined as the point at which the pressure sensation turned to pain. Pain tolerance threshold was defined as the point at which the subject felt the pain as intolerable. If the threshold was not reached at 1200 kPa, this value was considered as threshold. Three assessments were made and the mean of these 3 measurements were used for the data analysis.

healthy male volunteers [3] = assay: Cutaneous single electrical stimulation pain threshold; format: in vivo, human; conditions: mean (SD)
Experimental: Electrical stimulation was performed through electrodes placed distal to the lateral malleolus. A 25 ms, train-of-five, 1 ms, square-wave impulse (perceived as one stimulus), was delivered by a computer-controlled constant current stimulator (Digitimer DS7A, Neurospec, Letchworth Garden City, UK). The current intensity was increased from 1 mA in steps of 0.5 mA until a pain sensation was evoked.
Three assessments were made and the mean of these 3 measurements was used for the data analysis.

healthy male volunteers [4] = assay: Intramuscular repeated (5 stimuli) electrical stimulation pain threshold; format: in vivo, human; conditions: for Change in pain threshold after 5 intramuscular electrical stimuli between baseline and 120 minutes: main analysis, pairwise multiple comparison; for Change in pain detection threshold after 5 intramuscular electrical stimuli from baseline to peak value: peak value analysis, pairwise comparisons within each drug
Excerpt: The stimulus burst used for single stimulus was repeated 5 times at 2 Hz, at constant intensity. The current intensity of the 5 stimuli was increased from 1 mA in steps of 0.5 mA until the subjects felt pain during the last 2–3 of the 5 stimuli (indicating temporal summation).
A needle was placed in the tibialis anterior muscle, 14 cm distal from the caudal end of the patella and 20 mm in depth. The same single and repeated stimulation patterns and the same procedure described for cutaneous stimulation were used.

healthy male volunteers [5] = assay: Cuff algometry (tourniquet cuff on the leg, VAS-time AUC); format: in vivo, human; parameters: AUC of VAS during cuff algometry: unit not given beside the values; conditions: for AUC of VAS during cuff algometry: mean (SD)
Excerpt: A tourniquet cuff was applied to the middle of the leg, at the level of the heads of the gastrocnemius and soleus muscle. The cuff was applied at the side contralateral to the side of electrical stimulation in order not to interfere with the positioning of the intramuscular electrodes. During stimulation, the volunteer rated the pain intensity on an electronic VAS scale. The cuff was inflated with compressed air until VAS 6 was reached. The maximum allowed inflating pressure was 200 kPa. The pressure was maintained for 10 min or until the subjects rated the pain as intolerable. The area under the curve VAS-time was computed. For those subjects who felt intolerable pain before 10 min, the time when the cuff was deflated was recorded and VAS 10 was extrapolated until 10 min. Additionally, the maximal VAS during inflation was recorded.

patients / volunteers = conditions: ref Micromedex 2009, cited from earlier work
healthy male volunteers [6] = assay: Psychomotor performance, digit symbol substitution test (DSST); conditions: for DSST-score: single oral dose (clobazam 20 mg, clonazepam 1 mg, tolterodine 1 mg), mean (SD)
Experimental: The psychomotor performance was assessed by the digit symbol substitution test (DSST), a subscale of the Wechsler Adult Intelligence Scale. The DSST evaluates the ability to concentrate and modifications in processing information [23]. It is a two-minute paper-and-pencil test. The subject was asked to replace digits with corresponding symbols according to a code given on the same sheet of paper. The score consists in the total number and the correct number of symbols drawn.
Pressure pain, conditioned pain modulation (CPM), intramuscular electrical pain tests, cuff algometry and DSST were performed 120 min after drug intake.
After 15 min, the whole battery of tests was performed.

[7] = trial protocol; ref Micromedex 2009; cited from earlier work
[8] = baseline before medication, per drug session
[9] = single oral dose (clobazam 20 mg, clonazepam 1 mg, tolterodine 1 mg), 120 min after medication
[10] = single oral dose (clobazam 20 mg, clonazepam 1 mg, tolterodine 1 mg), after flumazenil 0.2 mg iv
[11] = single oral dose (clobazam 20 mg, clonazepam 1 mg, tolterodine 1 mg), 30 min after medication
[12] = single oral dose (clobazam 20 mg, clonazepam 1 mg, tolterodine 1 mg), 60 min after medication
[13] = single oral dose (clobazam 20 mg, clonazepam 1 mg, tolterodine 1 mg), 90 min after medication
[14] = baseline before medication, per drug session, mean (SD)
[15] = single oral dose (clobazam 20 mg, clonazepam 1 mg, tolterodine 1 mg), 120 min after medication, mean (SD)
[16] = single oral dose (clobazam 20 mg, clonazepam 1 mg, tolterodine 1 mg), after flumazenil 0.2 mg iv, mean (SD)
[17] = subgroup analysis (n = 8), pairwise multiple comparisons
[18] = patients treated for panic disorder

O=C1CN=C(c2ccccc2Cl)c2cc([N+](=O)[O-])ccc2N1 [Clonazepam]
Change in the area of static hyperalgesia over time (healthy male volunteers [1]): no statistically significant increase
Area of static hyperalgesia (healthy male volunteers [1]; 30 min after medication): 37.9 (13.6) cm^2
Area of static hyperalgesia (healthy male volunteers [1]; 60 min after medication): 45.6 (15.3) cm^2
Area of static hyperalgesia (healthy male volunteers [1]; 90 min after medication): 43.4 (14.3) cm^2
Area of static hyperalgesia (healthy male volunteers [1]; 120 min after medication): 41.9 (11.6) cm^2
Area of static hyperalgesia (healthy male volunteers [1]; after flumazenil 0.2 mg iv): 39.4 (12.3) cm^2
Change in the area of static hyperalgesia between 60 min and the measurement after flumazenil (healthy male volunteers [1]): Decrease in the area of hyperalgesia after Clonazepam
Change in the area of static hyperalgesia between 60 min and the measurement after flumazenil (healthy male volunteers [1]; listed as clonazepam): significantly decreases
Pressure pain detection threshold (healthy male volunteers [2]; [8]): 416 (80) kPa
Pressure pain tolerance threshold (healthy male volunteers [2]; [8]): 685 (172) kPa and 749 (242) kPa
Pressure pain detection threshold (healthy male volunteers [2]; [9]): 383 (100) kPa
Pressure pain tolerance threshold (healthy male volunteers [2]; [9]): 636 (147) kPa and 712 (262) kPa
Pressure pain detection threshold (healthy male volunteers [2]; [10]): 389 (112) kPa
Pressure pain tolerance threshold (healthy male volunteers [2]; [10]): 390.8 (199) kPa and 734.7 (279) kPa
Pain threshold after single cutaneous electrical stimulation (healthy male volunteers [3]; [8]): 9.7 (3.3) mA
Pain threshold after single cutaneous electrical stimulation (healthy male volunteers [3]; [11]): 9.8 (3.5) mA
Pain threshold after single cutaneous electrical stimulation (healthy male volunteers [3]; [12]): 10.3 (3.4) mA
Pain threshold after single cutaneous electrical stimulation (healthy male volunteers [3]; [13]): 10.6 (3.6) mA
Pain threshold after single cutaneous electrical stimulation (healthy male volunteers [3]; [9]): 11.0 (3.6) mA
Pain threshold after single cutaneous electrical stimulation (healthy male volunteers [3]; [10]): 11.2 (3.9) mA
Pain threshold after 5 intramuscular electrical stimuli (healthy male volunteers [4]; [14]): 1.6 (1.1) mA
Change in pain threshold after 5 intramuscular electrical stimuli between baseline and 120 minutes (healthy male volunteers [4]): statistically significant increase; also recorded: Significant increase in pain thresholds
Change in pain detection threshold after 5 intramuscular electrical stimuli from baseline to peak value (healthy male volunteers [4]): significant increase; also recorded: Consistent for an increase in pain thresholds after clobazam and clonazepam
Pain threshold after 5 intramuscular electrical stimuli (healthy male volunteers [4]; [15]): 2.3 (1.6) mA
Pain threshold after 5 intramuscular electrical stimuli (healthy male volunteers [4]; [16]): 2.9 (2.3) mA
Pain threshold after 5 intramuscular electrical stimuli (healthy male volunteers [4]; subgroup analysis (n = 8), 120 minutes, mean): 2.93 mA
Pain threshold after 5 intramuscular electrical stimuli (healthy male volunteers [4]; subgroup analysis (n = 8), after flumazenil administration, mean): 3.58 mA
Pain threshold after 5 intramuscular electrical stimuli (healthy male volunteers [4]; subgroup analysis (n = 8), baseline, mean): 1.69 mA
AUC of VAS during cuff algometry (healthy male volunteers [5]; [8]): 3420 (689)
Cuff algometry, overview of peak value or subgroup analysis (healthy male volunteers [5]; overview table, compared to tolterodine): Time factor significant, favouring clobazam and clonazepam compared to tolterodine
AUC of VAS during cuff algometry (healthy male volunteers [5]; [9]): 3175 (644)
AUC of VAS during cuff algometry (healthy male volunteers [5]; [10]): 3225 (671)
AUC of VAS during cuff algometry compared with tolterodine at 120 min (healthy male volunteers [5]; [17]): significantly lower
Change of AUC of VAS during cuff algometry from baseline at 120 min and after flumazenil (healthy male volunteers [5]; [17]): significantly decreased
Dizziness, share of patients (patients / volunteers; [18]): 8%
Somnolence, share of patients (patients / volunteers; [18]): approximately 37%
DSST score compared with tolterodine at 120 min (healthy male volunteers [6]; main analysis, pairwise comparison within the time-points): significantly associated to a lower score
DSST-score (healthy male volunteers [6]; 120 min after drug administration): 69.3 (15.8)
DSST-score (healthy male volunteers [6]; after flumazenil 0.2 mg iv): 79.1 (14.5)
Psychomotor performance (DSST) at 120 minutes compared with the other two drugs (healthy male volunteers [6]; subgroup analysis (n = 8), pairwise multiple comparison): lower psychomotor performance
Change of DSST score after flumazenil injection (healthy male volunteers [6]; subgroup analysis (n = 8), within drug): significantly increased

Cc1ccc(O)c([C@H](CCN(C(C)C)C(C)C)c2ccccc2)c1 [Tolterodine]
Change in the area of static hyperalgesia over time (healthy male volunteers [1]): significantly increased; also recorded: Significant increase in the area of hyperalgesia only for tolterodine
Area of static hyperalgesia (healthy male volunteers [1]; 30 min after medication): 36.3 (10.6) cm^2
Area of static hyperalgesia (healthy male volunteers [1]; 60 min after medication): 40.6 (11.5) cm^2
Area of static hyperalgesia (healthy male volunteers [1]; 90 min after medication): 43.8 (11.9) cm^2
Area of static hyperalgesia (healthy male volunteers [1]; 120 min after medication): 44.7 (10.9) cm^2
Area of static hyperalgesia (healthy male volunteers [1]; after flumazenil 0.2 mg iv): 47.6 (13.7) cm^2
Pressure pain detection threshold (healthy male volunteers [2]; [8]): 403 (118) kPa
Pressure pain tolerance threshold (healthy male volunteers [2]; [8]): 674 (221) kPa
Pressure pain detection threshold (healthy male volunteers [2]; [9]): 371 (88) kPa
Pressure pain detection threshold (healthy male volunteers [2]; [10]): 382 (118) kPa
Pressure pain tolerance threshold (healthy male volunteers [2]; [10]): 685.0 (203) kPa
Pain threshold after single cutaneous electrical stimulation (healthy male volunteers [3]; [8]): 9.9 (2.2) mA
Pain threshold after single cutaneous electrical stimulation (healthy male volunteers [3]; [11]): 10.3 (2.6) mA
Pain threshold after single cutaneous electrical stimulation (healthy male volunteers [3]; [12]): 10.7 (2.3) mA
Pain threshold after single cutaneous electrical stimulation (healthy male volunteers [3]; [13]): 10.9 (2.7) mA
Pain threshold after single cutaneous electrical stimulation (healthy male volunteers [3]; [9]): 11.5 (2.3) mA
Pain threshold after single cutaneous electrical stimulation (healthy male volunteers [3]; [10]): 12.1 (2.6) mA
Pain threshold after 5 intramuscular electrical stimuli (healthy male volunteers [4]; [14]): 1.6 (1.2) mA
Change in pain threshold after 5 intramuscular electrical stimuli between baseline and 120 minutes (healthy male volunteers [4]): not
Change in pain threshold after 5 intramuscular electrical stimuli between baseline and 120 minutes (healthy male volunteers [4]; listed as tolterodine): no statistically significant change
Change in pain detection threshold after 5 intramuscular electrical stimuli from baseline to peak value (healthy male volunteers [4]): not
Pain threshold after 5 intramuscular electrical stimuli (healthy male volunteers [4]; [15]): 1.9 (1.2) mA
Pain threshold after 5 intramuscular electrical stimuli (healthy male volunteers [4]; [16]): 2.2 (1.5) mA
AUC of VAS during cuff algometry (healthy male volunteers [5]; [8]): 3348 (743)
AUC of VAS during cuff algometry (healthy male volunteers [5]; [9]): 2686 (1155)
AUC of VAS during cuff algometry (healthy male volunteers [5]; [10]): 2918 (1021)
Oral bioavailability [7]: 77%
Dizziness, expected side effect frequency (patients / volunteers): 2%
Somnolence, expected side effect frequency (patients / volunteers): 3%
